Measurements taken from patent publication US12649980B2, “Three-dimensional surface for protein and small molecule microarrays” (The Johns Hopkins University, priority 2019, dated 2026).

Tests used:
[1] = system: HCC1954; assay: [3H]-2DG uptake assay in HCC1954 cells; format: cell-based, human
Procedure: Hay, Nat. Rev. […] To determine whether RgA could inhibit glucose uptake in cancer cell lines in addition to A549, the impact of RgA on [3H]-2DG uptake in six other cancer cell lines, including HCC1954, MCF-7, PANC10.05, Jurkat T, HeLa, and RKO was measured (FIG. 3A, Table 3).
(§1) The inhibitory activity of compounds on glucose transport was analyzed by measuring the cell uptake of [3H]-2DG as previously described. Ulanovskaya et al., Chem. Biol. 2011, 18, 222-230. Briefly, cells were washed twice and incubated in low-glucose medium for 10 min. Cells were added drugs and incubated for another 10 min before adding [3H]-2DG. After 10 min incubation with [3H]-2DG, cells were washed twice and lysed with 0.2 N NaOH plus 0.2% SDS. The cell lysate was transferred to a new tube containing 1 mL of optiphase supermix. Glucose uptake was quantified with a scintillation counter.

[2] = molecular target: T1, GLUT1 (Homo sapiens, UniProt P11166); assay: rapafucin 2D microarray screen with GLUT1-containing cell lysate; format: binding; conditions: signal-to-background ratio, 2D surface, same lysate and conditions
T1 construct: The full-length human SLC2A1, SLC2A3, and SLC2A4 genes were PCR amplified and inserted into pLenti6M vector 2; expressed in transfected cells
T1 sequence (P11166 1-492): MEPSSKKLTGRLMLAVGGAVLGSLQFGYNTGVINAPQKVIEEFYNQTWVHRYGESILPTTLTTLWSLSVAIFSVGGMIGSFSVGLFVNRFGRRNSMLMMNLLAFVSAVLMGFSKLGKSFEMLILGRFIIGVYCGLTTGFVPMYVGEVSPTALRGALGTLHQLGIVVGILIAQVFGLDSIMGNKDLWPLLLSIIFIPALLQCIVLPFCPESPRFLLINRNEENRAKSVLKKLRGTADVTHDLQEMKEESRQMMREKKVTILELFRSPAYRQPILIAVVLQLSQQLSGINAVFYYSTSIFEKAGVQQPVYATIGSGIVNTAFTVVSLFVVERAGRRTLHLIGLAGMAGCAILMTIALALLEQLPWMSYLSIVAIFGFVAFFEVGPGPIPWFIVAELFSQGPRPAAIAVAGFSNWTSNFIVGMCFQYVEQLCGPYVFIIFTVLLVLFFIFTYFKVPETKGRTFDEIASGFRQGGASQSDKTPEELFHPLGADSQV
From the text: Once stock solutions of the rapafucin library were arrayed on the 2D or 3D surface and most of solvent carrier was evaporated, the crosslinking reaction was initiated by irradiating the surfaces with 365-nm wavelength UV light. Kawatani and Osada, Medchemcomm 2014, 5, 277-287. […] To screen for GLUT1-interacting rapafucins, GLUT1 was stably overexpressed in HEK293T cells and generated cell lysates containing detergent-solubilized recombinant GLUT1 (FIG. 10). The GLUT1-containing cell lysate was then incubated on both 2D and 3D rapafucin microarrays. After washing the slides to remove unbound proteins, the bound GLUT1 protein was detected with anti-GLUT1 antibodies, followed by visualization with Cy5-labeled secondary antibodies using a microarray scanner. Rapafucins were scored as positive hits when the corresponding SBR was greater than 3. Based on this criterion, a total of 17 rapafucin hits and one positive control BAY-876, a specific GLUT1 inhibitor, Siebeneicher et al., ChemMedChem 2016, 11, 2261-2271, were identified on the 3D rapafucin microarray. In contrast, only one hit (WL13-F11, also among the 17 hits identified from the 3D rapafucin microarray) was identified on the 2D rapafucin microarray (Table 1, FIG. 11).
In the optimization experiments, the slides were incubated with 50 nM purified recombinant FKBP12 for 1 hour, while in the GLUT1 screening, 10 mg/mL of cell lysate containing DDM-solubilized GLUT1 from GLUT1 overexpressed HEK293T was incubated for 1 hour. Successively, primary antibody and CY5 labeled secondary antibody were added for 1 hour. The chips were washed in buffer A for 5 mins 3 times after the sample and antibodies incubation. After centrifugation, the dried chips were scanned by a microarray scanner (Genepix, US) at 635-nm wavelength. The final result was analyzed by GenePix software.

[3] = system: human red blood cells; assay: [3H]-2DG uptake in human red blood cells; format: cell-based; conditions: human red blood cells that exclusively express GLUT1; read-out: IC50 [3H]-2DG uptake into red blood cells
Procedure: To determine which of the 17 rapafucin hits inhibited the transporter activity of GLUT1, an orthogonal glucose uptake assay using 2-deoxy-D-[3H] glucose ([3H]-2DG), a nonhydrolyzable, radioactive glucose analog, was employed. Each hit was separately incubated with A549 cells for 10 min before the amount of [3H]-2DG taken up by the cells was measured using scintillation counting. […] The effect of JW11-D2 on uptake of [3H]-2DG in human red blood cells that exclusively express GLUT1 was then determined. Helgerson and Carruthers, J. Biol. Chem. 1987, 262, 5464-5475. […] To further improve the potency of JW11-D2, a structure-activity relationship (SAR) study was performed by synthesizing 21 new analogs of JW11-D2 using different amino acid building blocks.
as §1

[4] = molecular target: FKBP52 (Homo sapiens, UniProt Q02790); assay: peptidyl prolyl cis-trans isomerase activity inhibition, FKBP52; format: biochemical; conditions: inhibition of prolyl isomerase activity
FKBP52, sequence (Q02790 whole entry, species assumed): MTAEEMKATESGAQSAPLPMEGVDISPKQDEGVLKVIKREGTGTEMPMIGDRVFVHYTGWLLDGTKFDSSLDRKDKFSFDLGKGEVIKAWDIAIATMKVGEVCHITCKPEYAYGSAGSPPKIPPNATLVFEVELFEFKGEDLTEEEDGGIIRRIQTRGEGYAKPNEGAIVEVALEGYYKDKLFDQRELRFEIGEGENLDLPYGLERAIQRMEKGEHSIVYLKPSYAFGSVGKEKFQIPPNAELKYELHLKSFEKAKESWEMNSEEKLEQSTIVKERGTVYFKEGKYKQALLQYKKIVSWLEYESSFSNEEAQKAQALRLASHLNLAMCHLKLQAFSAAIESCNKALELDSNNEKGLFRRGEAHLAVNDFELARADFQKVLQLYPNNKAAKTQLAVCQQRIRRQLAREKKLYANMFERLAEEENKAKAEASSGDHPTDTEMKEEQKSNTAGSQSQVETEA

[5] = molecular target: FKBP25 (Homo sapiens, UniProt Q00688); assay: peptidyl prolyl cis-trans isomerase activity inhibition, FKBP25; format: biochemical; conditions: inhibition of prolyl isomerase activity
FKBP25, sequence (Q00688 whole entry, species assumed): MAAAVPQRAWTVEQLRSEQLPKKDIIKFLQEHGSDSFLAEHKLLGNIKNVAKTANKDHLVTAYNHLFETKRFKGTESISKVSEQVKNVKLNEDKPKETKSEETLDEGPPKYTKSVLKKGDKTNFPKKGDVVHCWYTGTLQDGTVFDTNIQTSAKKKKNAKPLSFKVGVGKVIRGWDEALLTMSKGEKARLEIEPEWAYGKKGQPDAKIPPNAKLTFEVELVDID

[6] = system: AMPK and mTOR activity; assay: Western blot of AMPK and mTOR (S6K) activity in MCF-7 cells; format: cell-based, human; conditions: MCF-7, time- and dose-dependent
From the text: The increase in AMP/ATP ratio, in turn, is expected to activate AMPK, leading to the inhibition of the mTOR signaling pathway. Liu et al., Mol. Cancer Ther. 2012, 11, 1672-1682; Head et al., ACS Chem. Biol. 2017, 12, 174-182. The effect of RgA on AMPK and mTOR activity in MCF-7 cells was therefore determined.
For western blot analysis, cells were harvested and lysed by RIPA buffer plus protease inhibitor. Cell lysates or samples from pull-down experiment were subjected to SDS/PAGE and then transferred to a nitrocellulose membrane. Membranes were first blocked in 5% (wt/vol) BSA in Tris-buffered saline plus 0.1% Tween 20 (TBST) at room temperature for 30 min and incubated with primary antibodies at 4° C. for overnight. Membranes were then washed three times with TBST and incubated with secondary antibodies at room temperature for another 1 h. Membranes were washed with TBST three times again and incubated with ECL substrate for 1 min at room temperature. Pictures were captured using a GeneSys Image Station.

## CCC(C)C1C(=O)NCC(=O)N(C)CCC=CC(=O)OCC(C)(C)C(=O)C(=O)N2CCCCC2C(=O)OC(CCc2ccc(OC)c(OC)c2)c2cccc(c2)NC(=O)CCC(=O)N(C)C(CC(C)C)C(=O)NC(Cc2ccccc2)C(=O)N1C (stereo not shown) [JW11-D2, Rapaglutin A]
[1]
  IC50: 8.3 nM
[2]
  2D SBR: <3.0
[3]
  IC50: 34.2 nM
[4]
  Ki: 32 ± 3 nM
[5]
  Ki: > 5000 nM
[6]
  AMPK activity: activated AMPK
  mTOR activity: inhibited mTOR activity
